Where two headings read alike, the source gives them in different places.
Key:
[1] = system: corn; conditions: in vivo
Method: Several scientific and replicated field research trials were conducted in multiple locations to evaluate weed control and crop tolerance of herbicide compositions containing about 80% by weight of […] active ingredient in the form of a water dispersible granule (WDG). The herbicide compositions were applied to the soil surface with or without weeds present at specific intervals i) before planting ([…]) prior to planting and incorporated into the soil ([…] incorporated), and iii) after planting of the corn, but prior to emergence (preemergence). Small plot research trials were conducted using a statistical design known as Randomized Complete Block Design (RCBD), which assumes that a population of experimental units can be divided into a number of relatively homogeneous subpopulations or blocks. […] In the analysis, the variation among blocks can be partitioned out of the experimental error (MSE), thereby reducing this quantity and increasing the power of the test. […] Crop tolerance was evaluated at intervals of 7 to 14, 21 to 28, and 42 to 56 days after corn emergence in these trials. […] Crop tolerance was evaluated at intervals of 23, 33, 41 and 56 days after corn emergence in these trials. […] Corn injury (height of corn, number of plants emerged) was measured as visual injury (% injury) at three different times during the season. […]

[2] = system: corn; assay: Crop tolerance (corn) field trial, Laurel, Md., light soil (Example 2); type: in vivo
Method: (§1) Several scientific and replicated field research trials were conducted in multiple locations to evaluate weed control and crop tolerance of herbicide compositions containing about 80% by weight of ametryn active ingredient in the form of a water dispersible granule (WDG). The herbicide compositions were applied to the soil surface with or without weeds present at specific intervals i) before planting (preplant), ii) prior to planting and incorporated into the soil (preplant incorporated), and iii) after planting of the corn, but prior to emergence (preemergence).
(§2) Small plot research trials were conducted using a statistical design known as Randomized Complete Block Design (RCBD), which assumes that a population of experimental units can be divided into a number of relatively homogeneous subpopulations or blocks. […] In the analysis, the variation among blocks can be partitioned out of the experimental error (MSE), thereby reducing this quantity and increasing the power of the test. […]
(§3) Efficacy on weeds and crop tolerance evaluations were conducted at specified intervals for each trial. […] Crop tolerance was evaluated at intervals of 7 to 14, 21 to 28, and 42 to 56 days after corn emergence in these trials. […] In an additional trial, efficacy of ametryn at rates of 1.2, 1.6 and 2.4 lb ai/a applied PRE was evaluated on grass and broadleaf weeds at the same intervals as the earlier trials. […]

[3] = system: corn; conditions: in vivo; remark: listed apart in the source
Method: as §1, §2, §3

[4] = system: Goosegrass; assay: Weed control field trial, Laurel, Md., light textured soil (Example 4); type: in vivo; conditions: 0.8, 1.6, 2.4 lb ai/a; 14 days preplant, 2 days preplant, PRE; 21 and 35 days after corn emergence
Method: as §1, §2, §3

[5] = system: Lambsquaters; assay: as above; type: in vivo; conditions: 0.8, 1.6, 2.4 lb ai/a; 14 days preplant, 2 days preplant, PRE; 21 and 35 days after corn emergence
Method: as §1, §2, §3

[6] = system: Cocklebur; assay: Weed control field trial, Laurel, Md., light textured soil (Example 5); type: in vivo; conditions: 1.2, 1.6, 2.4 lb ai/a PRE; 27 and 56 days after corn emergence
Method: as §1
(§4) Small plot research trials were conducted using a statistical design known as Randomized Complete Block Design (RCBD), which assumes that a population of experimental units can be divided into a number of relatively homogeneous subpopulations or blocks. The treatments are then randomly assigned to experimental units such that each treatment occurs equally often (usually once) in each block—i.e., each block contains all treatments. Blocks usually represent levels of naturally occurring differences or sources of variation that are unrelated to the treatments. In the analysis, the variation among blocks can be partitioned out of the experimental error (MSE), thereby reducing this quantity and increasing the power of the test. See, Clewer, A. G., and D. H. Scarisbrick. 2001. Practical statistics and experimental design for plant and crop science. John Wiley & Sons Ltd., New York. crop science. Treatment size was typically 4 rows of corn on 30-inch row spacing×30 feet long replicated 3 to 4 times. Preplant, preplant incorporated (PPI), or preemergence (PRE) treatments were uniformly applied with a hand-held backpack sprayer pressurized with compressed air or carbon dioxide (CO2) as the propellant to simulate commercial scale application. Treatments were applied using flat fan nozzle or spray nozzles at from 30 to 35 pounds per square inch (psi) delivering from 15 to 20 gallons of finished spray solution per acre.
(§5) Efficacy on weeds and crop tolerance evaluations were conducted at specified intervals for each trial. Ametryn herbicide (80% WDG) was applied to the soil at the times relative to planting as indicated at rates of 0.8, 1.2, 1.6, and 2.4 pounds of active ingredient per acre (lb ai/a) at various days preplant up to right before planting (0 day preplant), or immediately following planting (PRE), but before crop emergence. Crop tolerance was evaluated at intervals of 7 to 14, 21 to 28, and 42 to 56 days after corn emergence in these trials. Crop injury, if observed, was reported on a 0 to 100% visual rating scale and the type of injury (e.g., stunting) was noted. The efficacy of ametryn at a rate of 0.8, 1.2, 1.6 and 2.4 lbs ai/a applied 7 to 14 days preplant was evaluated on grass and broadleaf weeds at intervals of 7 to 14, 21 to 28, and 42 to 56 days after corn emergence. Efficacy trials were also conducted in no tillage and reduced tillage cropping systems, allowing for evaluations of existing weeds at application (i.e., burndown) and residual control of weeds which germinate following application. In an additional trial, efficacy of ametryn at rates of 1.2, 1.6 and 2.4 lb ai/a applied PRE was evaluated on grass and broadleaf weeds at the same intervals as the earlier trials. Efficacy in the later trials was conducted in both conventional and reduced tillage systems, which allowed for evaluations of residual weed control following application. A local commercial corn hybrid was planted in each trial location.
(§6) A weed control field trial was conducted in Laurel, Md. on a light textured soil. Ametryn herbicide (80% WDG) was applied preemergence to bare soil in the field to Giant Foxtail, Velvetleaf, Waterhemp, Giant Ragweed, Morningglory, and Cocklebur at rates of 1.2, 1.6 and 2.4 pounds of active ingredient per acre (lb ai/a) immediately following planting (PRE) and prior to corn emergence. The application volume was between 15 and 25 gallons per acre. […]

[7] = system: Giant Foxtail; assay: as above; type: in vivo; conditions: 1.2, 1.6, 2.4 lb ai/a PRE; 27 and 56 days after corn emergence
Method: as §1, §4, §5, §6

[8] = system: Giant Ragweed; assay: as above; type: in vivo; conditions: 1.2, 1.6, 2.4 lb ai/a PRE; 27 and 56 days after corn emergence
Method: as §1, §4, §5, §6

[9] = system: Morningglory; assay: as above; type: in vivo; conditions: 1.2, 1.6, 2.4 lb ai/a PRE; 27 and 56 days after corn emergence
Method: as §1, §4, §5, §6

[10] = system: Velvetleaf; assay: as above; type: in vivo; conditions: 1.2, 1.6, 2.4 lb ai/a PRE; 27 and 56 days after corn emergence
Method: as §1, §4, §5, §6

[11] = system: Waterhemp; assay: as above; type: in vivo; conditions: 1.2, 1.6, 2.4 lb ai/a PRE; 27 and 56 days after corn emergence
Method: as §1, §4, §5, §6

[12] = system: corn; conditions: in vivo; remark: listed apart in the source
Method: as §1, §2, §3

[13] = system: Cocklebur; assay: Weed control field trial, Richland, Iowa, fine textured soil (Example 6); type: in vivo; conditions: PRE; 4 weeks observation after application
Method: as §1, §4, §5
(§7) A weed control field trial was conducted in Richland, Iowa on a fine textured soil (e.g., silty clay loam). […]

[14] = system: Giant Foxtail; assay: as above; type: in vivo; conditions: PRE; 4 weeks observation after application
Method: as §1, §4, §5, §7

[15] = system: Giant Ragweed; assay: as above; type: in vivo; conditions: PRE; 4 weeks observation after application
Method: as §1, §4, §5, §7

[16] = system: Morningglory; assay: as above; type: in vivo; conditions: PRE; 4 weeks observation after application
Method: as §1, §4, §5, §7

[17] = system: Velvetleaf; assay: as above; type: in vivo; conditions: PRE; 4 weeks observation after application
Method: as §1, §4, §5, §7

[18] = system: Waterhemp; assay: as above; type: in vivo; conditions: PRE; 4 weeks observation after application
Method: as §1, §4, §5, §7

[19] = system: corn; conditions: in vivo; remark: listed apart in the source
Method: as §1, §2, §3

[20] = system: Giant Foxtail; assay: Weed control field trial, Wyoming, Ill., medium textured soil (Example 7); type: in vivo; conditions: PRE; 8 weeks observation after application
Method: as §1, §4
(§8) Efficacy on weeds and crop tolerance evaluations were conducted at specified intervals for each trial. […] Crop tolerance was evaluated at intervals of 7 to 14, 21 to 28, and 42 to 56 days after corn emergence in these trials. […] The efficacy of ametryn at a rate of 0.8, 1.2, 1.6 and 2.4 lbs ai/a applied 7 to 14 days preplant was evaluated on grass and broadleaf weeds at intervals of 7 to 14, 21 to 28, and 42 to 56 days after corn emergence. […] In an additional trial, efficacy of ametryn at rates of 1.2, 1.6 and 2.4 lb ai/a applied PRE was evaluated on grass and broadleaf weeds at the same intervals as the earlier trials. […]

[21] = system: Lambsquarters; assay: as above; type: in vivo; conditions: PRE; 8 weeks observation after application
Method: as §1, §4, §8

[22] = system: Redroot Pigweed; assay: as above; type: in vivo; conditions: PRE; 8 weeks observation after application
Method: as §1, §4, §8

[23] = system: Velvetleaf; assay: as above; type: in vivo; conditions: PRE; 8 weeks observation after application
Method: as §1, §4, §8

[24] = system: corn; conditions: in vivo; remark: listed apart in the source
Method: as §1, §2, §3

[25] = system: Giant Foxtail; assay: Weed control field trial, Fishers, Ind., fine textured soil (Example 8); type: in vivo; conditions: PRE, rate of 1.6 lb ai/a
Method: as §1, §4, §8

[26] = system: Lambsquarters; assay: as above; type: in vivo; conditions: PRE, rate of 1.6 lb ai/a
Method: as §1, §4, §8

[27] = system: Redroot Pigweed; assay: as above; type: in vivo; conditions: PRE, rate of 1.6 lb ai/a
Method: as §1, §4, §8

[28] = system: Velvetleaf; assay: as above; type: in vivo; conditions: PRE, rate of 1.6 lb ai/a
Method: as §1, §4, §8

[29] = system: corn; assay: Corn injury in weed control field trial, Laurel, Md., light textured soil (Example 9); type: in vivo
Method: as §1, §4, §8

[30] = system: corn; conditions: in vivo; remark: listed apart in the source
Method: as §1, §2, §3

[31] = system: Giant Foxtail; assay: Weed control field trial, Geneva, Minn., medium textured soil (Example 10); type: in vivo; conditions: PRE; 32 days after application
Method: as §1, §4, §8

[32] = system: Lambsquarters; assay: as above; type: in vivo; conditions: PRE; 32 days after application
Method: as §1, §4, §8

[33] = system: Velvetleaf; assay: as above; type: in vivo; conditions: PRE; 32 days after application
Method: as §1, §4, §8

[34] = system: Waterhemp; assay: as above; type: in vivo; conditions: PRE; 60 days after application
Method: as §1, §4, §8

[35] = system: corn; conditions: in vivo; remark: listed apart in the source
Method: as §1, §2, §3

[36] = system: Green Foxtail; assay: Weed control field trial, York, Nebr., medium textured soil (Example 11); type: in vivo; conditions: PRE; 4 weeks after application
Method: as §1
(§9) Small plot research trials were conducted using a statistical design known as Randomized Complete Block Design (RCBD), which assumes that a population of experimental units can be divided into a number of relatively homogeneous subpopulations or blocks. The treatments are then randomly assigned to experimental units such that each treatment occurs equally often (usually once) in each block—i.e., each block contains all treatments. Blocks usually represent levels of naturally occurring differences or sources of variation that are unrelated to the treatments. In the analysis, the variation among blocks can be partitioned out of the experimental error (MSE), thereby reducing this quantity and increasing the power of the test. See, Clewer, A. G., and D. H. Scarisbrick. 2001. Practical statistics and experimental design for plant and crop science. John Wiley & Sons Ltd., New York. crop science. […]
as §8

[37] = system: Velvetleaf; assay: as above; type: in vivo; conditions: PRE; 4 weeks after application
Method: as §1, §9, §8

[38] = system: Waterhemp; assay: as above; type: in vivo; conditions: PRE; 4 weeks after application
Method: as §1, §9, §8

CCNc1nc(NC(C)C)nc(SC)n1 [ametryn, 2-ethylamino-4-isopropylamino-6-methylthio-s-triazine]
Corn injury (visual injury) [1]: No injury | Corn yield ([2]; even though visual injury was measured at certain times): no reduction in yield | Corn injury ([2]; in vivo): non-significant or no injury | Corn injury [3]: No injury | Percent weed control [4]: significant improvement of weed control over the untreated treatment | Percent weed control [5]: significant improvement of weed control over the untreated treatment | Percent weed control [6]: significant improvement of weed control over the untreated treatment | Percent weed control [7]: significant improvement of weed control over the untreated treatment | Percent weed control [8]: significant improvement of weed control over the untreated treatment | Percent weed control [9]: significant improvement of weed control over the untreated treatment | Percent weed control [10]: significant improvement of weed control over the untreated treatment | Percent weed control [11]: significant improvement of weed control over the untreated treatment | Percent corn injury (corn safety) [12]: excellent corn safety | Weed control [13]: moderate to good control | Weed control [14]: moderate to good control | Weed control [15]: moderate to good control | Weed control [16]: moderate to good control | Weed control [17]: moderate to good control | Weed control [18]: excellent control | Percent corn injury (corn safety) [19]: excellent corn safety | Weed control [20]: good control | Weed control [21]: good control | Weed control [22]: good control | Weed control [23]: good control | Percent corn injury (safety to corn) [24]: excellent safety | Weed control [25]: moderate weed control | Weed control [26]: good weed control | Weed control [27]: good weed control | Weed control [28]: moderate weed control | Corn yield ([29]; even when minor injury was observed): no negative effect on yield | Corn injury ([29]; in vivo): Minor injury | Percent corn injury (safety to corn versus commercial standard) ([29]; in vivo): as safe to corn as a commercial standard of isoxaflutole with cyprosulfamide | Safety to corn ([29]; in vivo): excellent safety | Percent corn injury (safety to corn) [30]: acceptable safety | Weed control [31]: good control | Weed control [32]: good control | Weed control [33]: good control | Weed control [34]: moderate control | Percent corn injury (safety to corn) [35]: acceptable safety | Weed control [36]: good control | Weed control [37]: moderate control | Weed control [38]: good control

From US8921270B2, “Method for pre-emergent weed control using triazine-based herbicide” (Amvac Chemical Corporation, priority 2011, dated 2014)
